Test system: bovine nasal cartilage
Test: Bovine nasal cartilage assay: inhibition of IL-1β-induced proteoglycan loss (chondroitin sulfate by 1,9 DMB)
Format: cell-based
Conditions: Bos taurus; concentration preventing 50% of proteoglycan loss; IL-1β-stimulated cartilage plugs
Protocol: The BNC (bovine nasal cartilage) assay provides a model for evaluating chrondroprotective compounds that block cartilage degradation through inhibition of enzyme activity or by altering the gene expression of the matrix metalloproteinases such as stromelysin.
The assay is accomplished in two phases. The cartilage plugs are first incubated with IL-1β in the presence of the compounds of the present method. The amount of proteoglycan released is then quantified by measuring chondroitin sulfate present in the media using the 1,9-Dimethylmethylene Blue Assay (1,9 DMB).
Bovine nasal septum is dissected free of surrounding tissue and wiped with 70% alcohol. A sterile cork borer is used to remove 5-mm cartilage disks of 2- to 3-mm thickness. Explants are equilibrated for 96 hours in F-12 supplemented with 10% fetal calf serum (FCS) and antibiotics at 37° C. in a humidified atmosphere of 95% air and 5% CO2. Explants are then rinsed with 1 mL F-12 Nutrient Mixture (without phenol red) in order to remove traces of FCS. Each treatment group is done in triplicate allowing: controls (500 μL F-12 medium +110 μL PBS with 0.1% BSA +7 μL DMSO); IL-1β (500 μL F-12 medium without phenol red +100 μL IL-1β (500 U) +7 μL DMSO +10 μL PBS with 0.1% BSA); and dose responses (10, 1, and 0.1 μM) (F-12 medium without phenol red +100 μL IL-1β (500 U) +7 μL compound dissolved in DMSO +10 μL PBS with 0.1% BSA), to be tested per each 24-well plate. The cartilage plugs are incubated in the presence of conditioned media (IL-1β+compound) for 48 hours. Fresh unconditioned media (no IL-1β or compound) is added and incubated for an additional 24 hours. Both the conditioned and unconditioned media are collected and saved for analysis using the 1,9 DMB assay.
The ability of a compound to inhibit proteoglycan released from the cartilage plugs is quantified by measuring chondroitin sulfate. This is done using the calorimetric 1,9 DMB assay. Depending on the amount of chondroitin sulfate present in the media a color change will occur turning the normally deep blue dye, vivid pink. This color change is measured using a Titertek Multiscan MCC 340 plate reader at 540 nm. A Cetus Pro/Pette is used to speed dilution and pipetting steps. The Cetus uses Sarstedt vials, designed for radioimmune assays, which have been inserted into Sarstedt 96-vial aluminum racks. The first row of 12 slots is left empty in order to accommodate the chondroitin sulfate standards (0.01-0.32 μg/mL shark chondroitin sulfate in 0.1 M phosphate buffer, pH 7.0, containing 0.01 M L-cysteine HCl and 0.05 M EDTA). It is necessary to dilute (1:5, 1:10) the medium before a […] is performed by adding 10 μL of collected media to 290 μL DMF (16 mg dye/1 L of 0.1 M formate buffer, pH 3.5, containing 5 mL ethanol) and reading at […]. Dilutions are performed on both the 48-hour and 72-hour media samples collected and saved earlier. Once the experiment has been completed, in order to determine the total amount of proteoglycan remaining in the plugs, they are subjected to papain digestion. Cartilage explants are digested in 20-mL glass scintillation vials by adding 50 μL papain in 1.0 mL cysteine buffer (0.01 M phosphate buffer, pH 7.0 containing 0.01 M L-cysteine HCl and 0.05 M EDTA). Digested material is diluted (1:60) and chondroitin sulfate values determined using the 1,9 DMB assay.
Determination of chondroitin sulfate in each sample is accomplished by subtracting the constant value determined from the linear regression performed on the standard curve, from the O.D. value for a particular well, and then dividing by the X coefficient calculated from the linear regression done on the standard curve. Each experimental well is split into two samples for determining chondroitin sulfate values, then the two are averaged. […]

Structure (SMILES): S=c1[nH]nc(-c2ccccc2Nc2ccccc2)o1 [Compound 1, 5-(2-Phenylamino-phenyl)-3H-[1,3,4]oxadiazole-2-thione]
- IC50: 830 nM

Reference: patent US6211209A, “Method of inhibiting connective tissue degradation” (Warner-Lambert Company, priority 1998, dated 2001)
